Experimental data as given in ChEMBL document CHEMBL4428082, “Aligning Potency and Pharmacokinetic Properties for Pyridine-Based NCINIs” (ACS Med Chem Lett, 2016).
Values after ≈ are worked out from the molar mass of the structure shown.

What was measured:
[1] = tested on: Human immunodeficiency virus; experiment: Ratio of EC50 for HIV1 NL4.3 integrase N124/T125 double mutant in presence of human serum to EC50 for HIV1 NL4.3 integrase N124/T125 double mutant in absence of human serum
[2] = Inhibition of HIV NL4.3 integrase N124/T125 double mutant assessed as reduction in viral replication by luciferase reporter gene assay; design: species or system Human immunodeficiency virus
[3] = Inhibition of HIV NL4.3 integrase T124/T125 double mutant assessed as reduction in viral replication by luciferase reporter gene assay; design: species or system Human immunodeficiency virus
[4] = Half life in human liver microsomes; format: ADME, Microsome
[5] = Clearance in rat relative to hepatic blood flow; format: ADME; conditions: in vivo
[6] = Total drug excretion in rat bile assessed as acyl glucuronide of parent compound at 3 hrs; format: ADME, tissue-based; conditions: in vivo
[7] = Clearance in rat hepatocytes relative to hepatic blood flow; format: ADME, cell-based, Hepatocyte; conditions: read-out: CLH
[8] = Clearance in iv dosed dog relative to hepatic blood flow; format: ADME, organism-based, Canis lupus familiaris; conditions: in vivo
Cytochrome P450 2D6 = Cytochrome P450 2D6 (Homo sapiens, UniProt P10635); experiment: Inhibition of CYP2D6 (unknown origin); format: ADME
[9] = Half life in rat; format: ADME; conditions: in vivo
Cytochrome P450 2C19 = Cytochrome P450 2C19 (Homo sapiens, UniProt P33261); experiment: Inhibition of CYP2C19 (unknown origin); format: ADME
[10] = Volume of distribution at steady state in rat; format: ADME; conditions: in vivo, read-out: Vdss
[11] = Inhibition of HIV NL4.3 integrase A124/A125 double mutant infected in PBMC assessed as reduction in viral replication by p24 ELISA; conditions: Human immunodeficiency virus 1, NL4.3
[12] = Half life in bile duct cannulated rat; format: ADME; conditions: in vivo
[13] = Clearance in iv dosed monkey relative to hepatic blood flow; format: ADME, organism-based, Macaca mulatta; conditions: rhesus monkey, in vivo
[14] = Clearance in monkey hepatocytes relative to hepatic blood flow; format: ADME, cell-based, Macaca mulatta, Hepatocyte; conditions: rhesus monkey, read-out: CLH
[15] = Inhibition of HIV NL4.3 integrase N124/A125 double mutant infected in PBMC assessed as reduction in viral replication by p24 ELISA; conditions: Human immunodeficiency virus 1, NL4.3
[16] = Inhibition of HIV NL4.3 integrase N124/T125 double mutant infected in PBMC assessed as reduction in viral replication by p24 ELISA; conditions: Human immunodeficiency virus 1, NL4.3
[17] = Inhibition of HIV NL4.3 integrase T124/A125 double mutant infected in PBMC assessed as reduction in viral replication by p24 ELISA; conditions: Human immunodeficiency virus 1, NL4.3
Cytochrome P450 1A2 = target: T1, Cytochrome P450 1A2 (Homo sapiens, UniProt P05177); experiment: Inhibition of CYP1A2 (unknown origin); format: ADME
T1 sequence (P05177 whole entry): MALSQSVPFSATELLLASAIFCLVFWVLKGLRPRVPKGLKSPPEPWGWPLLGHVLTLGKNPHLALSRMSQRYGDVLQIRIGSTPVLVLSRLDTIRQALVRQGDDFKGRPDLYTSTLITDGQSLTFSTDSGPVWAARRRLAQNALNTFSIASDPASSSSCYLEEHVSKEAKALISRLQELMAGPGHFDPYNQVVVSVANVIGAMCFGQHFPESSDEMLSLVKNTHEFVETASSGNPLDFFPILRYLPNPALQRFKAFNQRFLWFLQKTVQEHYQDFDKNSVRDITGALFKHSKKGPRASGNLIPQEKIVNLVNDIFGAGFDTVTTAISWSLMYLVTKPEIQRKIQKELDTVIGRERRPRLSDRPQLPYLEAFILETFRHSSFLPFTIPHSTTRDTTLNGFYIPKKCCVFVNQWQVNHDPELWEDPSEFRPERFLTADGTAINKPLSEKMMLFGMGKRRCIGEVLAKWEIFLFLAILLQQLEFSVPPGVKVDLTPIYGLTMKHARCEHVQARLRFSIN

[18] = Solubility of the compound at pH 6.8; format: physicochemical; conditions: buffer
Cytochrome P450 2C9 = Cytochrome P450 2C9 (Homo sapiens, UniProt P11712); experiment: Inhibition of CYP2C9 (unknown origin); format: ADME
[19] = Inhibition of HIV NL4.3 integrase T124/T125 double mutant infected in PBMC assessed as reduction in viral replication by p24 ELISA; conditions: Human immunodeficiency virus 1, NL4.3
[20] = Clearance in iv dosed rat relative to hepatic blood flow; format: ADME, organism-based; conditions: in vivo
[21] = Clearance in human hepatocytes relative to hepatic blood flow; format: ADME, cell-based, Hepatocyte; conditions: read-out: CLH
[22] = Clearance in dog hepatocytes relative to hepatic blood flow; format: ADME, cell-based, Canis lupus familiaris, Hepatocyte; conditions: read-out: CLH
[23] = Inhibition of HIV NL4.3 integrase A124/T125 double mutant infected in PBMC assessed as reduction in viral replication by p24 ELISA; conditions: Human immunodeficiency virus 1, NL4.3
Cytochrome P450 3A4 = Cytochrome P450 3A4 (Homo sapiens, UniProt P08684); experiment: Inhibition of CYP3A4 (unknown origin); format: ADME
[24] = Apparent permeability in human Caco2 cells; format: ADME, cell-based; conditions: Caco-2

Cytochrome P450 2D6, sequence (P10635 whole entry): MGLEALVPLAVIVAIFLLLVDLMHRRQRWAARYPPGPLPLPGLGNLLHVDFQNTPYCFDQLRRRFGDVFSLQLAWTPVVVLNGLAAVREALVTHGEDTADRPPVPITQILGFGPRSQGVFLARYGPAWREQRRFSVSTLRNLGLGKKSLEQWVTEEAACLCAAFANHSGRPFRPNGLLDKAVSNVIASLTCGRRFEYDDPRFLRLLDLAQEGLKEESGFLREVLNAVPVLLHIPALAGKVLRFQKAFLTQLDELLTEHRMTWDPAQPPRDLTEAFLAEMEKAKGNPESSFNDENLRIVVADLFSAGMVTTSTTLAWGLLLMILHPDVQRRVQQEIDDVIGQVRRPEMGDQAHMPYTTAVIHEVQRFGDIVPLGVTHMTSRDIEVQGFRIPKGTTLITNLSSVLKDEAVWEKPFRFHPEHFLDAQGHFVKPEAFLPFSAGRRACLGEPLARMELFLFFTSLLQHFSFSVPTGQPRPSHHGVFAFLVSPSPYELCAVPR
Cytochrome P450 3A4, sequence (P08684 whole entry): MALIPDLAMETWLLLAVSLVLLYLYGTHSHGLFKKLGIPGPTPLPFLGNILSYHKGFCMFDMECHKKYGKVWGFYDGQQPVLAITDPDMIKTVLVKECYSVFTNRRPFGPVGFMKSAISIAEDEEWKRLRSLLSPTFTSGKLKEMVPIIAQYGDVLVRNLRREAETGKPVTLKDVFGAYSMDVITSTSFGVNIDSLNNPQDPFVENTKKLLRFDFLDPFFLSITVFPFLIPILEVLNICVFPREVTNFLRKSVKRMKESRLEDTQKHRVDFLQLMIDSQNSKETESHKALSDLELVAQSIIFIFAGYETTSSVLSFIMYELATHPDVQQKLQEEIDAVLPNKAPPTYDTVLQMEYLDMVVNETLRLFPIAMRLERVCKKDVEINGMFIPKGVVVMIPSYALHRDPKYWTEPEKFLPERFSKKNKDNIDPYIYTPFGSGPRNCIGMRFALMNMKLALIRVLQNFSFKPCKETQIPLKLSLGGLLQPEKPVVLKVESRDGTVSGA
Cytochrome P450 2C19, sequence (P33261 whole entry): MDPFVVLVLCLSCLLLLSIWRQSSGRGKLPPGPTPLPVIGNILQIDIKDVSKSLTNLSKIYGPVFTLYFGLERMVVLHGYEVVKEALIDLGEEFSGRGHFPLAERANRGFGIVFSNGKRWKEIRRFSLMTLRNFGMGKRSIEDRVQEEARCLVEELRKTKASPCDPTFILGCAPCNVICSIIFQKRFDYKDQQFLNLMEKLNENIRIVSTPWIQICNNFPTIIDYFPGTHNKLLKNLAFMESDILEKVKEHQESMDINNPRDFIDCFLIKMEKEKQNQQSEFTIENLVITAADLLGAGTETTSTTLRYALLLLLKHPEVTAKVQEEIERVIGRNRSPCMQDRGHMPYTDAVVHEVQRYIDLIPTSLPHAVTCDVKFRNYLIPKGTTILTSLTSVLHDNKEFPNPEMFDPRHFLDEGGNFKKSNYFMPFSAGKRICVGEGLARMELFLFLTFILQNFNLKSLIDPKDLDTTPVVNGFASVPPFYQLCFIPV
Cytochrome P450 2C9, sequence (P11712 whole entry): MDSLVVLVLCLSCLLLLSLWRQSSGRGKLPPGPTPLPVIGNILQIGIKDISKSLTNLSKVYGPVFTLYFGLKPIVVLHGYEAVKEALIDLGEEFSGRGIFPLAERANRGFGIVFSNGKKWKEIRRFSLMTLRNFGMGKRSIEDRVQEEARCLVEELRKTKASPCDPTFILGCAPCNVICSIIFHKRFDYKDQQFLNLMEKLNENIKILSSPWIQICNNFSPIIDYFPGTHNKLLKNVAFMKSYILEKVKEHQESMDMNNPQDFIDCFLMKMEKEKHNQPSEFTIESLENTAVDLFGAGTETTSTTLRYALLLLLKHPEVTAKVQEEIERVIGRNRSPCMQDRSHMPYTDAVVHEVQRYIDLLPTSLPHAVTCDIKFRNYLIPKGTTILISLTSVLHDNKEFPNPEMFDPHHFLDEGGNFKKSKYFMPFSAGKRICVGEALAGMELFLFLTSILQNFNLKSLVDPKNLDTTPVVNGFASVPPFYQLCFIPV

`Cc1nc(C(=O)NC(C)(C)C2CC2)c(C)c(-c2ccc(Cl)cc2)c1[C@H](OC(C)(C)C)C(=O)O` gave a Ratio EC50 [1] of 1.5, an EC50 [2] of 560 nM and an EC50 [3] of 4.4 nM. For the same molecule, the half-life [4] was 3.63 h.

Work on `Cc1ccc2[nH]c(-c3nc(C)c([C@H](OC(C)(C)C)C(=O)O)c(-c4ccc(Cl)cc4)c3C)nc2c1` yielded a Ratio EC50 [1] of 13, an EC50 [3] of 1.1 nM and a half-life [4] of 2.77 h.

For `Cc1nc(C(=O)NC2CCN(C)CC2)c(C)c(-c2ccc(Cl)cc2)c1[C@H](OC(C)(C)C)C(=O)O`, the EC50 [3] was 2200 nM.

`Cc1nc(NC(=O)c2ccccc2)c(C)c(-c2ccc(Cl)cc2)c1[C@H](OC(C)(C)C)C(=O)O` showed an EC50 [2] of 1100 nM and an EC50 [3] of 15 nM.

Molecule `Cc1nc(-c2cn(-c3ccccc3)nn2)c(C)c(-c2ccc3c(c2)CCCO3)c1[C@H](OC(C)(C)C)C(=O)O` has a Ratio EC50 [1] of 17, an EC50 [2] of 310 nM and an EC50 [3] of 4.7 nM.

`Cc1nc(C(=O)N[C@H]2CC[C@H](C)CC2)c(C)c(-c2ccc3c(c2C)NCCO3)c1[C@H](OC(C)(C)C)C(=O)O` showed a Ratio EC50 [1] of 3, an EC50 [2] of 130 nM and an EC50 [3] of 7.5 nM. For the same molecule, the half-life [4] was 3.12 h.

For `Cc1noc(C)c1-c1ccc(-c2nc(C)c([C@H](OC(C)(C)C)C(=O)O)c(-c3ccc4c(c3)CCCO4)c2C)cc1`, the Ratio EC50 [1] was 7.8, the EC50 [2] was 390 nM and the EC50 [3] was 5.5 nM.

`Cc1nc(C(=O)N[C@H]2CC[C@H](C)CC2)c(C)c(-c2ccc(Cl)cc2)c1[C@H](OC(C)(C)C)C(=O)O` gave a Ratio EC50 [1] of 3.7, an EC50 [2] of 570 nM and an EC50 [3] of 7.3 nM. It also gave a half-life [4] of 3.07 h.

`Cc1noc(C)c1-c1ccc(-c2nc(C)c([C@H](OC(C)(C)C)C(=O)O)c(-c3ccc(Cl)cc3)c2C)cc1` showed an EC50 [2] of 810 nM, an EC50 [3] of 7.7 nM and a CL [5] of 0.6%.

`Cc1nc(NC(=O)c2ccccc2OC(F)(F)F)c(C)c(-c2ccc3c(c2C)N(C)CCO3)c1[C@H](OC(C)(C)C)C(=O)O` showed a Ratio EC50 [1] of 2.6, an EC50 [3] of 4.7 nM and a half-life [4] of over 5 h.

With `Cc1nc2ccccc2c(-c2ccc3c4c(ccnc24)CCO3)c1[C@H](OC(C)(C)C)C(=O)O` [BI-224436] the EC50 [2] was 30 nM, the EC50 [3] was 19 nM and the CL [5] was 0.7%.

`Cc1nc(-c2nc3ccc(F)cc3n2C)c(C)c(-c2ccc3c(c2C)N(C)CCO3)c1[C@H](OC(C)(C)C)C(=O)O` gave a Ratio EC50 [1] of 1.4, an EC50 [2] of 120 nM and an EC50 [3] of 3 nM. It also gave a half-life [4] of 1.58 h.

For `Cc1ccc2nc(-c3nc(C)c([C@H](OC(C)(C)C)C(=O)O)c(-c4ccc5c(c4C)N(C)CCO5)c3C)n(C)c2c1`, the Ratio EC50 [1] was 3.9, the EC50 [2] was 91 nM and the EC50 [3] was 3 nM. The half-life [4] was 1.58 h.

With `Cc1nc(C(=O)N[C@H]2CC[C@H](C)CC2)c(C)c(-c2ccc3c(c2)NCCO3)c1[C@H](OC(C)(C)C)C(=O)O` the Ratio EC50 [1] was 2.1, the EC50 [2] was 280 nM and the EC50 [3] was 27 nM. The half-life [4] was over 5 h.

Molecule `Cc1nc(C(=O)Nc2ccccc2)c(C)c(-c2ccc(Cl)cc2)c1[C@H](OC(C)(C)C)C(=O)O` has an EC50 [2] of 670 nM and an EC50 [3] of 12 nM.

`Cc1nc(NC(=O)c2ccccc2OC(F)(F)F)c(C)c(-c2ccc3c(c2)N(C)CCO3)c1[C@H](OC(C)(C)C)C(=O)O` gave a Ratio EC50 [1] of 3.4, an EC50 [2] of 220 nM and an EC50 [3] of 7.4 nM. For the same molecule, the half-life [4] was over 5 h.

Work on `Cc1nc(C(=O)N[C@H]2CC[C@H](O)CC2)c(C)c(-c2ccc(Cl)cc2)c1[C@H](OC(C)(C)C)C(=O)O` yielded an EC50 [3] of 930 nM and a half-life [4] of over 5 h.

With `Cc1nc(C(=O)N[C@H]2CC[C@H](C)CC2)c(C)c(-c2ccc3c4c(cccc24)CCO3)c1[C@H](OC(C)(C)C)C(=O)O` the Ratio EC50 [1] was 2.9, the EC50 [2] was over 2500 nM and the EC50 [3] was 16 nM. The half-life [4] was over 5 h.

For `Cc1nc(C(=O)N[C@H]2CC[C@H](C)CC2)c(C)c(-c2ccc3c(c2)N(C)CCO3)c1[C@H](OC(C)(C)C)C(=O)O`, the Ratio EC50 [1] was 4.1, the EC50 [2] was 600 nM and the EC50 [3] was 6.8 nM. For the same molecule, the half-life [4] was over 5 h.

Work on `Cc1nc(-c2nc3cccc(C)c3n2C)c(C)c(-c2ccc(Cl)cc2)c1[C@H](OC(C)(C)C)C(=O)O` yielded a Ratio EC50 [1] of 3.2, an EC50 [3] of 3 nM and a half-life [4] of 2 h.

In the case of `Cc1nc(C(=O)N[C@H]2CC[C@H](C)CC2)c(C)c(-c2ccc3c(c2)CCCO3)c1[C@H](OC(C)(C)C)C(=O)O`, the Ratio EC50 [1] is reported as 4.1, the EC50 [2] is reported as 220 nM and the EC50 [3] is reported as 4.2 nM. For the same molecule, the half-life [4] was 0.817 h.

For `Cc1nc(C(=O)N[C@H]2CC[C@H](C)CC2)c(C)c(-c2ccc3c(c2C)N(C)CCO3)c1[C@H](OC(C)(C)C)C(=O)O`, the Drug excretion [6] was 20%, the hepatic extraction ratio [7] was 0.07 and the CL [8] was 10%. For the same molecule, the IC50 (Cytochrome P450 2D6) was over 30000 nM, the half-life [9] was 1.3 h and the Ratio EC50 [1] was 2.9. For the same molecule, the IC50 (Cytochrome P450 2C19) was over 30000 nM, the Vd [10] was 1.4 L/kg and the EC50 [11] was 0.9 nM. For the same molecule, the half-life [12] was 1.3 h, the EC50 [2] was 170 nM and the CL [13] was 30%. It also gave an EC50 [3] of 2.5 nM, a hepatic extraction ratio [14] of 0.31 and an EC50 [15] of 42 nM. The EC50 [16] was 27 nM, the EC50 [17] was 0.4 nM and the IC50 (Cytochrome P450 1A2) was over 30000 nM. For the same molecule, the solubility [18] was 930 µg/mL (≈ 1730 µM), the IC50 (Cytochrome P450 2C9) was over 30000 nM and the EC50 [19] was 0.5 nM. For the same molecule, the CL [20] was 23%, the hepatic extraction ratio [21] was 0.17 and the half-life [4] was over 5 h. The hepatic extraction ratio [22] was 0.31, the EC50 [23] was 0.6 nM and the IC50 (Cytochrome P450 3A4) was over 30000 nM. The Papp [24] was 39.8 ×10⁻⁶ cm/s.

For `Cc1cccc(NC(=O)c2nc(C)c([C@H](OC(C)(C)C)C(=O)O)c(-c3ccc(Cl)cc3)c2C)c1`, the EC50 [3] was 3.7 nM and the half-life [4] was over 5 h.

`Cc1nc(C(=O)NCc2ccccc2)c(C)c(-c2ccc3c(c2)CCCO3)c1[C@H](OC(C)(C)C)C(=O)O` showed a Ratio EC50 [1] of 23, an EC50 [2] of 200 nM and an EC50 [3] of 14 nM.

Molecule `Cc1nc(-c2nc3ccccc3n2C)c(C)c(-c2ccc3c(c2C)N(C)CCO3)c1[C@H](OC(C)(C)C)C(=O)O` has a Drug excretion [6] of 70%, a hepatic extraction ratio [7] of 0.19 and a Ratio EC50 [1] of 4.9. The Vd [10] was 1.6 L/kg, the EC50 [2] was 59 nM and the EC50 [3] was 3.3 nM. The solubility [18] was over 1000 µg/mL, the CL [20] was 24% and the hepatic extraction ratio [21] was 0.24. The half-life [4] was 3.25 h and the Papp [24] was 10.6 ×10⁻⁶ cm/s.
